Experiment [1] has as its system human hepatoma Huh-7 cell line harboring a HCV replicon. Put plainly: HCV replicon assay (inhibition of viral replication, luciferase). The format is cell-based. The following applies: Hepatitis C virus; for EC50: Huh-7, 72 h; for inhibition at 1 µM: Huh-7, read-out: % inhibition at 1 μM. The procedure: The anti-HCV activity of the compounds of this invention was tested in a human hepatoma Huh-7 cell line harboring a HCV replicon. The assay comprised the following steps:
Step 1: Compound Preparation and Serial Dilution
Serial dilution was performed in 100% DMSO in a 384-well plate. A solution containing a compound at 225-fold concentration of the starting final serial dilution concentration was prepared in 100% DMSO and 15 uL added to the pre-specified wells in column 3 or 13 of a polypropylene 384-well plate. The rest of the 384-well plate was filled with 10 uL 100% DMSO except for columns 23 and 24, where 10 uL of 500 uM a HCV protease inhibitor (ITMN-191) in 100% DMSO was added. […] The plate was then placed on a Biomek FX Workstation to start the serial dilution. The serial dilution was performed for ten cycles of 3-fold dilution from column 3 to 12 or from column 13 to 22.
Step 2: Cell Culture Plate Preparation and Compound Addition
To each well of a black polypropylene 384-well plate, 90 μL of cell media containing 1600 suspended Huh-7 HCV replicon cells was added with a Biotek uFlow Workstation. A volume of 0.4 μL of the compound solution was transferred from the serial dilution plate to the cell culture plate on a Biomek FX Workstation. The DMSO concentration in the final assay condition was 0.44%. The plates were incubated for 3 days at 37° C. with 5% CO2 and 85% humidity.
Step 3: Detection of Cytotoxicity and Inhibition of Viral Replication
b) Assessment of inhibition of viral replication: The calcein-PBS solution in the 384-well cell culture plate was aspirated with a Biotek EL405 plate-washer. A volume of 20 μL of Dual-Glo luciferase buffer (Promega, Dual-Glo Luciferase Assay Reagent, cat. #E298B) was added to each well of the plate with a Biotek uFlow Workstation. The plate was incubated for 10 minutes at room temperature. A volume of 20 μL of a solution containing 1:100 mixture of Dual-Glo Stop & Glo substrate (Promega, Dual-Glo Luciferase Assay Reagent, cat. #E313B) and Dual-Glo Stop & Glo buffer (Promega, Dual-Glo Luciferase Assay Reagent, cat. #E314B) was then added to each well of the plate with a Biotek uFlow Workstation. The plate was incubated at room temperature for 10 minutes before the luminescence signal was measured with a Perkin Elmer Envision Plate Reader.
The percent cytotoxicity was determined by calcein AM conversion to fluorescent product. The average fluorescent signal from the DMSO control wells were defined as 100% nontoxic. The individual fluorescent signal from testing compound treated well was divided by the average signal from DMSO control wells and then multiplied by 100% to get the percent viability. The percent anti-HCV replication activity was determined by the luminescence signal from the testing well compared to DMSO controls wells. The background signal was determined by the average luminescence signal from the HCV protease inhibitor treated wells and was subtracted from the signal from the testing wells as well as the DMSO control wells.
Where b is Hill's coefficient. See, for reference, Hill, A. V., The Possible Effects of the Aggregation of the Molecules of Hemoglobin on its Dissociation Curves, J. Physiol. 40: iv-vii. (1910).
% inhibition values at a specific concentration, for example 2 μM, can also be derived from the formula above.
The EC50's are presented as a % inhibition.
(Replicon systems follow genome replication, usually without infectious particles.)

The target in experiment [2] is cyclophilin A (Homo sapiens, UniProt P62937). Put plainly: Cyclophilin A TR-FRET competitive binding assay. Conditions: inhibition of cyclophilin binding; 5 nM CypA, 150 nM CsA-Cy5. How it is done:
Cyclophilin A TR-FRET Competitive Binding Assay
Inhibitor potency was measured using a competitive binding assay with a time-resolved fluorescence resonance energy transfer (TR-FRET) readout. […] The total volume of the assay solution was 100 μL. […] An IC50 value was calculated using a four-parameter logistic fit.
(In general: Time-resolved FRET reads energy transfer from a long-lived donor to a nearby acceptor.)

For orientation: EC50 means the concentration that produces a half-maximal response. High values mean a less potent agent, low ones a more potent agent. By inhibition is commonly meant the share of the control response that was lost under treatment. For orientation: IC50 means the point on the concentration scale where inhibition reaches its midpoint. A high value points to weaker potency in that assay.

Molecules are shown by their SMILES.

Chain of cyclophilin A (P62937 whole entry, species assumed): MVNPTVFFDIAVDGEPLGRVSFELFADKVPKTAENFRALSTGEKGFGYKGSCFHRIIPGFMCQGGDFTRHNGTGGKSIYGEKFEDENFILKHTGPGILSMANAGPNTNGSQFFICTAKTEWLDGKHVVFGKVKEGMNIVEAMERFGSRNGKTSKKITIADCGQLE

Consider `CO[C@@H]1[C@@H](C)[C@@H](OC)/C=C/C=C/CCOC(=O)[C@@H]2CCCN(N2)C(=O)[C@H](Cc2cccc(O)c2)NC(=O)[C@H](C(C)C)NC(=O)[C@@H]1C` [Compound 3, (13E,15E)-(3S,6S,9R,10R,11S,12S,21S)-3-(3-Hydroxy-benzyl)-6-isopropyl-10,12-dimethoxy-9,11-dimethyl-19-oxa-1,4,7,25-tetraaza-bicyclo[19.3.1]pentacosa-13,15-diene-2,5,8,20-tetraone], for which, in experiment [1], the EC50 was less than 1 µM and the inhibition at 1 µM amounted to 59%.
For `CO[C@@H]1[C@@H](C)[C@@H](OC)/C=C/C=C/CCNC(=O)[C@@H]2CCCN(N2)C(=O)[C@H](Cc2cccc(O)c2)NC(=O)[C@H](C(C)C)NC(=O)[C@@H]1C` [Compound 4, (13E,15E)-(3S,6S,9R,10R,11S,12S,21S)-3-(3-Hydroxy-benzyl)-6-isopropyl-10,12-dimethoxy-9,11-dimethyl-1,4,7,19,25-pentaaza-bicyclo[19.3.1]pentacosa-13,15-diene-2,5,8,20-tetraone], in experiment [1], the EC50 was in the range of 1.1 to 10 µM and the inhibition at 1 µM was determined as 10%. In experiment [2], this compound came in with an IC50 of less than 0.1 µM.
The corresponding values for `CO[C@@H]1[C@@H](C)[C@@H](OC)/C=C/c2cccc(c2)COC(=O)[C@@H]2CCCN(N2)C(=O)[C@H](Cc2cccc(O)c2)NC(=O)[C@H](C(C)C)NC(=O)[C@@H]1C` [Compound 5, (E)-(5S,11S,14S,17R,18R,19S,20S)-11-(3-Hydroxy-benzyl)-14-isopropyl-18,20-dimethoxy-17,19-dimethyl-3-oxa-9,12,15,28-tetraaza-tricyclo[21.3.1.1*5,9*]octacosa-1(27),21,23,25-tetraene-4,10,13,16-tetraone] are less than 1 µM, 67% and less than 0.1 µM.
For `CC(C)[C@@H]1NC(=O)[C@H](C)[C@H](O)c2ccc(cc2)/C=C/CCOC(=O)[C@@H]2CCCN(N2)C(=O)[C@H](Cc2cccc(O)c2)NC1=O` [Compound 8, (E)-(8S,14S,17S,20R,21S)-21-Hydroxy-14-(3-hydroxy-benzyl)-17-isopropyl-20-methyl-6-oxa-12,15,18,27-tetraaza-tricyclo[20.2.2.1*8,12*]heptacosa-1(25),2,22(26),23-tetraene-7,13,16,19-tetraone], the inhibition at 1 µM in experiment [1] stood at 13%. This compound gave an IC50 in experiment [2] of 0.101 to 1 µM.
`CC(C)[C@@H]1NC(=O)[C@H](C)[C@H](O)c2ccc(cc2)CCCCOC(=O)[C@@H]2CCCN(N2)C(=O)[C@H](Cc2cccc(O)c2)NC1=O` [Compound 9, (8S,14S,17S,20R,21S)-21-Hydroxy-14-(3-hydroxy-benzyl)-17-isopropyl-20-methyl-6-oxa-12,15,18,27-tetraaza-tricyclo[20.2.2.1*8,12*]heptacosa-1(25),22(26),23-triene-7,13,16,19-tetraone]: in experiment [1], the half-maximal effective concentration (EC50) was in the range of 10.1 to 100 µM and the inhibition at 1 µM was 4%. Also, the IC50 in experiment [2] lay within 1 to 10 µM.
Regarding `CO[C@@H]1CC/C=C/c2cccc(c2)COC(=O)[C@@H]2CCCN(N2)C(=O)[C@H](Cc2cccc(O)c2)NC(=O)[C@H](C(C)C)NC(=O)[C@@H]1C` [Compound 10, (E)-(5S,11S,14S,17R,18R)-11-(3-Hydroxy-benzyl)-14-isopropyl-18-methoxy-17-methyl-3-oxa-9,12,15,28-tetraaza-tricyclo[21.3.1.1*5,9*]octacosa-1(27),21,23,25-tetraene-4,10,13,16-tetraone], in experiment [1], the inhibition at 1 µM turned out to be 59%.
Take `CO[C@@H]1CC/C=C/C=C/CCOC(=O)[C@@H]2CCCN(N2)C(=O)[C@H](Cc2cccc(O)c2)NC(=O)[C@H](C(C)C)NC(=O)[C@@H]1C` [Compound 11, (13E,15E)-(3S,6S,9R,10R,21S)-3-(3-Hydroxy-benzyl)-6-isopropyl-10-methoxy-9-methyl-19-oxa-1,4,7,25-tetraaza-bicyclo[19.3.1]pentacosa-13,15-diene-2,5,8,20-tetraone]: in experiment [1], the EC50 was less than 1 µM and the inhibition at 1 µM is 67%.
Consider `CO[C@@H]1[C@@H](C)[C@@H](OC)/C=C/C=C/C[C@@H](C)OC(=O)[C@@H]2CCCN(N2)C(=O)[C@H](Cc2cccc(O)c2)NC(=O)[C@H](C(C)C)NC(=O)[C@@H]1C` [Compound 12, (13E,15E)-(3S,6S,9R,10R,11S,12S,18R,21S)-3-(3-Hydroxy-benzyl)-6-isopropyl-10,12-dimethoxy-9,11,18-trimethyl-19-oxa-1,4,7,25-tetraaza-bicyclo[19.3.1]pentacosa-13,15-diene-2,5,8,20-tetraone], for which, in experiment [1], the concentration for a half-maximal effect (EC50) was less than 1 µM and the inhibition at 1 µM was 82%. Also, the IC50 in experiment [2] was less than 0.1 µM.
For the compound `CO[C@@H]1CC/C=C/c2cccc(c2)[C@@H](C)OC(=O)[C@@H]2CCCN(N2)C(=O)[C@H](Cc2cccc(O)c2)NC(=O)[C@H](C(C)C)NC(=O)[C@@H]1C` [Compound 13, (E)-(2R,5S,11S,14S,17R,18R)-11-(3-Hydroxy-benzyl)-14-isopropyl-18-methoxy-2,17-dimethyl-3-oxa-9,12,15,28-tetraaza-tricyclo[21.3.1.1*5,9*]octacosa-1(26),21,23(27),24-tetraene-4,10,13,16-tetraone], in experiment [1], the half-maximal effective concentration (EC50) is less than 1 µM and the inhibition at 1 µM was found to be 93%.
As for `CO[C@@H]1CC/C=C/c2cccc(c2)[C@@H](C)NC(=O)[C@@H]2CCCN(N2)C(=O)[C@H](Cc2cccc(O)c2)NC(=O)[C@H](C(C)C)NC(=O)[C@@H]1C` [Compound 16, (E)-(2R,5S,11S,14S,17R,18R)-11-(3-Hydroxy-benzyl)-14-isopropyl-18-methoxy-2,17-dimethyl-3,9,12,15,28-pentaaza-tricyclo[21.3.1.1*5,9*]octacosa-1(27),21,23,25-tetraene-4,10,13,16-tetraone], in experiment [1], the half-maximal effective concentration (EC50) is less than 1 µM and the inhibition at 1 µM was determined as 75%. In experiment [2], this compound displayed an IC50 of less than 0.1 µM.
As to `CO[C@@H]1CC/C=C/c2ccnc(c2)COC(=O)[C@@H]2CCCN(N2)C(=O)[C@H](Cc2cccc(O)c2)NC(=O)[C@H](C(C)C)NC(=O)[C@@H]1C` [Compound 17, (E)-(1S,14R,15R,18S,21S)-21-(3-Hydroxy-benzyl)-18-isopropyl-14-methoxy-15-methyl-3-oxa-6,17,20,23,27-pentaaza-tricyclo[21.3.1.1*5,9*]octacosa-5,7,9(28),10-tetraene-2,16,19,22-tetraone], in experiment [1], the EC50 is less than 1 µM and the inhibition at 1 µM amounted to 56%. Further, the IC50 in experiment [2] is less than 0.1 µM.
The corresponding values for `CO[C@@H]1CC/C=C/c2cc(ccn2)COC(=O)[C@@H]2CCCN(N2)C(=O)[C@H](Cc2cccc(O)c2)NC(=O)[C@H](C(C)C)NC(=O)[C@@H]1C` [Compound 18, (E)-(1S,14R,15R,18S,21S)-21-(3-Hydroxy-benzyl)-18-isopropyl-14-methoxy-15-methyl-3-oxa-8,17,20,23,27-pentaaza-tricyclo[21.3.1.1*5,9*]octacosa-,7,9(28),10-tetraene-2,16,19,22-tetraone] are less than 1 µM, 54% and less than 0.1 µM.
For `CO[C@@H]1CC/C=C/c2ccc3c(c2)[C@@H](CC3)OC(=O)[C@@H]2CCCN(N2)C(=O)[C@H](Cc2cccc(O)c2)NC(=O)[C@H](C(C)C)NC(=O)[C@@H]1C` [Compound 19], in that order: less than 1 µM, 70% and less than 0.1 µM.
